From US12213985B2, “Oral cannabinoid formulations” (Jazz Pharmaceuticals Research UK Limited, priority 2016, dated 2025)
Where a SMILES comes first, the peptide text is derived from it.

What was measured:
[1] = derived from FDA website; cited from earlier work
[2] = Physical stability of Neotame formulations, open bottles standing 2 weeks; assay type: physicochemical
Protocol: The 25 mg/ml and 100 mg/ml batches were tested for physical stability by opening the bottles and allowing them to stand for 2 weeks to let the ethanol evaporate. This was done as a worst case in-use scenario where the bottle is repeatedly opened and closed multiple times during use. The batches were monitored for any signs of precipitation and the ethanol content measured.

[3] = Lowest ethanol concentration to solubilise Advantame, storage and observation for precipitation (ET03/015); assay type: physicochemical; details: Advantame 0.0025% w/v in sesame oil formulation
Protocol: An experiment (ET03/015) was carried out to determine the lowest ethanol concentration required to solubilise Advantame. Table 3 details the batches made with various ethanol concentrations ranging from 0.5% to 3.0% v/v.
These batches were stored at 25° C./60% RH and 40° C./75% RH for up to 4 weeks and observed for any signs of precipitation. There was no precipitation observed over the period assessed. Therefore it was concluded that Advantame can be used as a sweetener and can be solubilised at ethanol concentration of at least as low as 0.5% v/v. i.e. the concentration of ethanol required in the formulation can be reduced by a factor of 20 compared to a sucralose containing formulation.

[4] = Miscibility of alternative solvents with sesame oil; assay type: physicochemical; details: range of concentrations (0.5-10%) tested

| Compound | Acceptable Daily Intake [1] | other results |
| --- | --- | --- |
| O.O.O=C1NS(=O)(=O)c2ccccc21 [Saccharin Dihydrate] | 15 mg/kg/day | – |
| COC(=O)[C@H](Cc1ccccc1)NC(=O)[C@@H](N)CC(=O)O [Aspartame] (H-Asp-Phe-OMe) | 50 mg/kg/day | – |
| OC[C@H]1O[C@H](O[C@]2(CCl)O[C@H](CCl)[C@@H](O)[C@@H]2O)[C@H](O)[C@@H](O)[C@H]1Cl [Sucralose, reference compound] | 5 mg/kg/day | – |
| O=C1NS(=O)(=O)c2ccccc21 [Saccharin] | 15 mg/kg/day | – |
| COC(=O)[C@H](Cc1ccccc1)NC(=O)[C@H](CC(=O)O)NCCC(C)(C)C [Neotame, N—[N-(3,3-dimethylbutyl)-L-α-aspartyl]-L-phenylalanine 1-methyl ester] | 0.3 mg/kg/day | concentration at which Neotame can be physically solubilised ([2]; in ethanol): up to 0.01 % w/v; solubility in ethanol ([2]; room temperature): freely soluble |
| COC(=O)[C@H](Cc1ccccc1)NC(=O)[C@H](CC(=O)O)NCCCc1ccc(OC)c(O)c1 [Advantame, N—[N-3-(3-hydroxy-4-methoxyphenyl)propyl-α-L-aspartyl]-L-phenylalanine 1-methyl ester] | 32.8 mg/kg/day | ethanol concentration at which the sweetener can be solubilised [3]: ≤ 0.5 % v/v |
| CC(O)CO (centres unmarked) [propylene glycol] | – | miscibility with sesame oil [4]: not satisfactory |
| OCC(O)CO [glycerin] | – | miscibility with sesame oil [4]: not satisfactory |
